Assay results from patent publication USRE48335E1, “Polymyxin derivatives as antimicrobial compounds” (priority 2014, dated 2020).
Converted amounts (≈) assume the structure as drawn. Positions of bridges follow the written chain, without caps; N, C: chain ends. Non-standard residues stand in square brackets, D forms with d. Residues, ends and D or L forms follow the SMILES beside them. *: point of attachment. Benzoyl(4-CF3) = O=C(c1ccc(C(F)(F)F)cc1)*; Heptanoyl = CCCCCCC(=O)*; Octanoyl = CCCCCCCC(=O)*; Orn = NCCC[C@H](N)C(=O)O; Dab = NCC[C@H](N)C(=O)O; Abu = CC[C@H](N)C(=O)O; Dap = NC[C@H](N)C(=O)O

Tests used:
Pseudomonas aeruginosa = test system: Pseudomonas aeruginosa
How it was run: (§1)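 Read-out is the MIC, obtained by broth microdilution under CLSI guidance. Lipopeptides (TFA salt form) were diluted in cation-adjusted Mueller-Hinton broth, with polymyxin B sulphate run alongside as control.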

Acinetobacter baumannii = test system: Acinetobacter baumannii
How it was run: as §1

Enterobacter cloacae = test system: Enterobacter cloacae
How it was run: as §1

Row | Compound | Minimum inhibitory concentration, Pa ATCC 27853 (Pseudomonas aeruginosa) [mg/L] | Minimum inhibitory concentration, Pa FADDI-PA022 (Pseudomonas aeruginosa) [mg/L] | Minimum inhibitory concentration, Pa FADDI-PA025 (Pseudomonas aeruginosa) [mg/L] | Minimum inhibitory concentration, Ab A ATCC 17978 (Acinetobacter baumannii) [mg/L] | Minimum inhibitory concentration, Ab ATCC 19606 (Acinetobacter baumannii) [mg/L] | Minimum inhibitory concentration, Ab FADDI-AB034 (Acinetobacter baumannii) [mg/L] | Minimum inhibitory concentration, Ec FADDI-EC001 (Enterobacter cloacae) [mg/L] | Minimum inhibitory concentration, Ec FADDI-EC003 (Enterobacter cloacae) [mg/L] | Minimum inhibitory concentration, Ec FADDI-EC006 (Enterobacter cloacae) [mg/L]
1 | CCCCCCCC(=O)N[C@@H](CCN)C(=O)N[C@H](C(=O)N[C@@H](CN)C(=O)N[C@H]1CCNC(=O)[C@H]([C@@H](C)O)NC(=O)[C@H](CCN)NC(=O)[C@H](CCCN)NC(=O)[C@H]([C@@H](C)O)NC(=O)[C@@H](CC(C)C)NC(=O)[C@H](CCN)NC1=O)[C@@H](C)O [Compound 54] (Octanoyl-[Dab]T[Dap][Dab][Dab][dL]T[Orn][Dab]T; lactam 4-C) | 4 (≈ 3.5 µM) | 2 (≈ 1.75 µM) | 16 (≈ 14 µM) | 0.5 (≈ 0.437 µM) | 0.5 (≈ 0.437 µM) | 0.25 (≈ 0.219 µM) | <0.125 | <0.125 | 0.25 (≈ 0.219 µM)
2 | CCCCCCCC(=O)N[C@@H](CCN)C(=O)N[C@H](C(=O)N[C@@H](CN)C(=O)N[C@H]1CCNC(=O)[C@H]([C@@H](C)O)NC(=O)[C@H](CCN)NC(=O)[C@H](CCN)NC(=O)[C@H]([C@@H](C)O)NC(=O)[C@@H](CC(C)C)NC(=O)[C@H](CCCN)NC1=O)[C@@H](C)O [Compound 55] (Octanoyl-[Dab]T[Dap][Dab][Orn][dL]T[Dab][Dab]T; lactam 4-C) | >32 | >32 | >32 | >32 | >32 | >32 | 1 (≈ 0.875 µM) | 4 (≈ 3.5 µM) | >32
3 | CC(C)C[C@H]1NC(=O)[C@H](CCN)NC(=O)[C@@H](NC(=O)[C@H](CN)NC(=O)[C@@H](NC(=O)[C@H](CCN)NC(=O)c2ccc(C(F)(F)F)cc2)[C@@H](C)O)CCNC(=O)[C@H]([C@@H](C)O)NC(=O)[C@H](CCN)NC(=O)[C@H](CCN)NC(=O)[C@H]([C@@H](C)O)NC1=O [Compound 56] ({Benzoyl(4-CF3)}-[Dab]T[Dap][Dab][Dab][dL]T[Dab][Dab]T; lactam 4-C) | 0.5 (≈ 0.425 µM) | 2 (≈ 1.7 µM) | 4 (≈ 3.4 µM) | 1 (≈ 0.851 µM) | 2 (≈ 1.7 µM) | 1 (≈ 0.851 µM) | <0.125 | <0.125 | 0.25 (≈ 0.213 µM)
4 | CCCCCCCC(=O)N[C@@H](CCN)C(=O)N[C@H](C(=O)N[C@@H](CCN)C(=O)N[C@H]1CCNC(=O)[C@H]([C@@H](C)O)NC(=O)[C@H](CCN)NC(=O)[C@H](CCN)NC(=O)[C@H](CC)NC(=O)[C@@H](CC(C)C)NC(=O)[C@H](CCN)NC1=O)[C@@H](C)O [Compound 60] (Octanoyl-[Dab]T[Dab][Dab][Dab][dL][Abu][Dab][Dab]T; lactam 4-C) | 0.5 (≈ 0.443 µM) | 0.5 (≈ 0.443 µM) | 8 (≈ 7.1 µM) | 0.5 (≈ 0.443 µM) | 1 (≈ 0.887 µM) | 0.5 (≈ 0.443 µM) | <0.125 | <0.125 | 0.5 (≈ 0.443 µM)
5 | CCCCCCC(=O)N[C@@H](CCN)C(=O)N[C@H](C(=O)N[C@@H](CN)C(=O)N[C@H]1CCNC(=O)[C@H]([C@@H](C)O)NC(=O)[C@H](CCN)NC(=O)[C@H](CCN)NC(=O)[C@H](C)NC(=O)[C@@H](CC(C)C)NC(=O)[C@H](CCN)NC1=O)[C@@H](C)O [Compound 63] (Heptanoyl-[Dab]T[Dap][Dab][Dab][dL]A[Dab][Dab]T; lactam 4-C) | 0.5 (≈ 0.461 µM) | 2 (≈ 1.84 µM) | >32 | 1 (≈ 0.921 µM) | 2 (≈ 1.84 µM) | 1 (≈ 0.921 µM) | 0.5 (≈ 0.461 µM) | <0.125 | 0.5 (≈ 0.461 µM)
